Measurements taken from PubChem BioAssay (NCI).
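Dose response: 5 concentrations. Exposure: 48 h. Format: 96-well plates. Endpoint: linear interpolation; highest concentration if not reached. The concentration for full growth arrest is given as TGI.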

How the values were obtained:
Assay in all cases: NCI-60 cell line screen, 48 h
786-0 renal = system: 786-0 renal
A498 renal = system: A498 renal
A549 NSCLC = system: A549 NSCLC
ACHN renal = system: ACHN renal
BT-549 breast = system: BT-549 breast
CAKI-1 renal = system: CAKI-1 renal
COLO 205 colon = system: COLO 205 colon
DU-145 prostate = system: DU-145 prostate
EKVX NSCLC = system: EKVX NSCLC
HCT-116 colon = system: HCT-116 colon
HCT-15 colon = system: HCT-15 colon
HOP-62 NSCLC = system: HOP-62 NSCLC
HOP-92 NSCLC = system: HOP-92 NSCLC
HS 578T breast = system: HS 578T breast
HT29 colon = system: HT29 colon
IGROV1 ovarian = system: IGROV1 ovarian
KM12 colon = system: KM12 colon
LOX IMVI melanoma = system: LOX IMVI melanoma
M14 melanoma = system: M14 melanoma
MALME-3M melanoma = system: MALME-3M melanoma
MCF7 breast = system: MCF7 breast
MDA-MB-231 breast = system: MDA-MB-231 breast
MDA-MB-435 = system: MDA-MB-435
MDA-N = system: MDA-N
NCI-H226 lung = system: NCI-H226 lung
NCI-H23 lung = system: NCI-H23 lung
NCI-H522 lung = system: NCI-H522 lung
NCI/ADR-RES ovarian = system: NCI/ADR-RES ovarian
OVCAR-3 ovarian = system: OVCAR-3 ovarian
OVCAR-4 ovarian = system: OVCAR-4 ovarian
OVCAR-5 ovarian = system: OVCAR-5 ovarian
OVCAR-8 ovarian = system: OVCAR-8 ovarian
PC-3 prostate = system: PC-3 prostate
RPMI-8226 leukemia = system: RPMI-8226 leukemia
RXF 393 renal = system: RXF 393 renal
SF-268 CNS = system: SF-268 CNS
SF-295 CNS = system: SF-295 CNS
SK-MEL-2 melanoma = system: SK-MEL-2 melanoma
SK-MEL-28 melanoma = system: SK-MEL-28 melanoma
SK-MEL-5 melanoma = system: SK-MEL-5 melanoma
SK-OV-3 ovarian = system: SK-OV-3 ovarian
SN12C renal = system: SN12C renal
SNB-19 CNS = system: SNB-19 CNS
SNB-75 CNS = system: SNB-75 CNS
SW-620 colon = system: SW-620 colon
T-47D breast = system: T-47D breast
TK-10 renal = system: TK-10 renal
U251 CNS = system: U251 CNS
UACC-257 melanoma = system: UACC-257 melanoma
UACC-62 melanoma = system: UACC-62 melanoma
UO-31 renal = system: UO-31 renal
HCC-2998 colon = system: HCC-2998 colon
HL-60(TB) leukemia = system: HL-60(TB) leukemia
K-562 leukemia = system: K-562 leukemia
MOLT-4 leukemia = system: MOLT-4 leukemia
NCI-H460 lung = system: NCI-H460 lung
SF-539 CNS = system: SF-539 CNS
SR leukemia = system: SR leukemia
CCRF-CEM leukemia = system: CCRF-CEM leukemia

**Q.** What does the source list for O=S(=O)(O)c1ccc(N=Nc2ccc3c(S(=O)(=O)O)cccc3c2O)c2ccccc12?
**A.** TGI (786-0 renal): > 100 µM; TGI (A498 renal): > 100 µM; TGI (A549 NSCLC): > 100 µM; TGI (ACHN renal): > 100 µM; TGI (BT-549 breast): > 100 µM; TGI (CAKI-1 renal): > 100 µM; TGI (COLO 205 colon): > 100 µM; TGI (DU-145 prostate): > 100 µM; TGI (EKVX NSCLC): > 100 µM; TGI (HCT-116 colon): > 100 µM; TGI (HCT-15 colon): > 100 µM; TGI (HOP-62 NSCLC): > 100 µM; TGI (HOP-92 NSCLC): > 100 µM; TGI (HS 578T breast): > 100 µM; TGI (HT29 colon): > 100 µM; TGI (IGROV1 ovarian): > 100 µM; TGI (KM12 colon): > 100 µM; TGI (LOX IMVI melanoma): > 100 µM; TGI (M14 melanoma): > 100 µM; TGI (MALME-3M melanoma): > 100 µM; TGI (MCF7 breast): > 100 µM; TGI (MDA-MB-231 breast): > 100 µM; TGI (MDA-MB-435): > 100 µM; TGI (MDA-N): > 100 µM; TGI (NCI-H226 lung): > 100 µM; TGI (NCI-H23 lung): > 100 µM; TGI (NCI-H522 lung): > 100 µM; TGI (NCI/ADR-RES ovarian): > 100 µM; TGI (OVCAR-3 ovarian): > 100 µM; TGI (OVCAR-4 ovarian): > 100 µM; TGI (OVCAR-5 ovarian): > 100 µM; TGI (OVCAR-8 ovarian): > 100 µM; TGI (PC-3 prostate): > 100 µM; TGI (RPMI-8226 leukemia): > 100 µM; TGI (RXF 393 renal): > 100 µM; TGI (SF-268 CNS): > 100 µM; TGI (SF-295 CNS): > 100 µM; TGI (SK-MEL-2 melanoma): > 100 µM; TGI (SK-MEL-28 melanoma): > 100 µM; TGI (SK-MEL-5 melanoma): > 100 µM; TGI (SK-OV-3 ovarian): > 100 µM; TGI (SN12C renal): > 100 µM; TGI (SNB-19 CNS): > 100 µM; TGI (SNB-75 CNS): > 100 µM; TGI (SW-620 colon): > 100 µM; TGI (T-47D breast): > 100 µM; TGI (TK-10 renal): > 100 µM; TGI (U251 CNS): > 100 µM; TGI (UACC-257 melanoma): > 100 µM; TGI (UACC-62 melanoma): > 100 µM; TGI (UO-31 renal): > 100 µM

**Q.** Which results are given for COc1ccc2c(c1)CN1C(=N2)CSC1c1cccc(Br)c1 (configuration not stated)?
**A.** TGI (786-0 renal): 42.8 µM; TGI (A549 NSCLC): > 100 µM; TGI (ACHN renal): > 100 µM; TGI (BT-549 breast): > 100 µM; TGI (CAKI-1 renal): > 100 µM; TGI (COLO 205 colon): > 100 µM; TGI (EKVX NSCLC): > 100 µM; TGI (HCC-2998 colon): 57.8 µM; TGI (HCT-116 colon): > 100 µM; TGI (HCT-15 colon): > 100 µM; TGI (HL-60(TB) leukemia): 22.3 µM; TGI (HOP-62 NSCLC): > 100 µM; TGI (HOP-92 NSCLC): > 100 µM; TGI (HS 578T breast): > 100 µM; TGI (HT29 colon): 72.3 µM; TGI (IGROV1 ovarian): > 100 µM; TGI (K-562 leukemia): > 100 µM; TGI (KM12 colon): > 100 µM; TGI (LOX IMVI melanoma): > 100 µM; TGI (M14 melanoma): > 100 µM; TGI (MALME-3M melanoma): > 100 µM; TGI (MCF7 breast): > 100 µM; TGI (MDA-MB-231 breast): > 100 µM; TGI (MDA-MB-435): > 100 µM; TGI (MDA-N): > 100 µM; TGI (MOLT-4 leukemia): 63.2 µM; TGI (NCI-H226 lung): 61.2 µM; TGI (NCI-H23 lung): 83.5 µM; TGI (NCI-H460 lung): > 100 µM; TGI (NCI-H522 lung): > 100 µM; TGI (NCI/ADR-RES ovarian): > 100 µM; TGI (OVCAR-4 ovarian): > 100 µM; TGI (OVCAR-5 ovarian): > 100 µM; TGI (OVCAR-8 ovarian): > 100 µM; TGI (PC-3 prostate): > 100 µM; TGI (RPMI-8226 leukemia): 35.2 µM; TGI (RXF 393 renal): 55.9 µM; TGI (SF-268 CNS): > 100 µM; TGI (SF-295 CNS): > 100 µM; TGI (SF-539 CNS): > 100 µM; TGI (SK-MEL-2 melanoma): > 100 µM; TGI (SK-MEL-28 melanoma): > 100 µM; TGI (SK-MEL-5 melanoma): 83.7 µM; TGI (SK-OV-3 ovarian): > 100 µM; TGI (SN12C renal): 62.6 µM; TGI (SNB-19 CNS): > 100 µM; TGI (SNB-75 CNS): 64.5 µM; TGI (SR leukemia): > 100 µM; TGI (SW-620 colon): > 100 µM; TGI (T-47D breast): > 100 µM; TGI (TK-10 renal): > 100 µM; TGI (U251 CNS): > 100 µM; TGI (UACC-257 melanoma): > 100 µM; TGI (UACC-62 melanoma): 53.1 µM; TGI (UO-31 renal): > 100 µM

**Q.** Which results are given for COc1ccc(Cn2c(=O)c(OC)c(C)c3cc4ccccc4cc32)cc1?
**A.** TGI (786-0 renal): > 100 µM; TGI (A549 NSCLC): > 100 µM; TGI (ACHN renal): > 100 µM; TGI (BT-549 breast): > 100 µM; TGI (CAKI-1 renal): > 100 µM; TGI (CCRF-CEM leukemia): > 100 µM; TGI (COLO 205 colon): 40.2 µM; TGI (DU-145 prostate): > 100 µM; TGI (EKVX NSCLC): 60.3 µM; TGI (HCC-2998 colon): 63.5 µM; TGI (HCT-116 colon): 43 µM; TGI (HCT-15 colon): > 100 µM; TGI (HL-60(TB) leukemia): 46 µM; TGI (HOP-62 NSCLC): > 100 µM; TGI (HS 578T breast): > 100 µM; TGI (HT29 colon): > 100 µM; TGI (IGROV1 ovarian): 57 µM; TGI (K-562 leukemia): > 100 µM; TGI (KM12 colon): > 100 µM; TGI (LOX IMVI melanoma): 41.7 µM; TGI (M14 melanoma): > 100 µM; TGI (MALME-3M melanoma): 72.7 µM; TGI (MCF7 breast): > 100 µM; TGI (MDA-MB-231 breast): > 100 µM; TGI (MDA-MB-435): > 100 µM; TGI (MDA-N): > 100 µM; TGI (MOLT-4 leukemia): 53 µM; TGI (NCI-H226 lung): > 100 µM; TGI (NCI-H23 lung): 77.5 µM; TGI (NCI-H460 lung): 36.8 µM; TGI (NCI-H522 lung): 59.6 µM; TGI (NCI/ADR-RES ovarian): 87.9 µM; TGI (OVCAR-3 ovarian): > 100 µM; TGI (OVCAR-4 ovarian): > 100 µM; TGI (OVCAR-5 ovarian): > 100 µM; TGI (OVCAR-8 ovarian): > 100 µM; TGI (PC-3 prostate): 49.2 µM; TGI (RXF 393 renal): > 100 µM; TGI (SF-268 CNS): > 100 µM; TGI (SF-295 CNS): > 100 µM; TGI (SF-539 CNS): > 100 µM; TGI (SK-MEL-2 melanoma): 52.5 µM; TGI (SK-MEL-28 melanoma): > 100 µM; TGI (SK-MEL-5 melanoma): 22.2 µM; TGI (SK-OV-3 ovarian): > 100 µM; TGI (SN12C renal): 42.6 µM; TGI (SNB-19 CNS): > 100 µM; TGI (SNB-75 CNS): > 100 µM; TGI (SR leukemia): 57.5 µM; TGI (SW-620 colon): > 100 µM; TGI (T-47D breast): > 100 µM; TGI (TK-10 renal): 70.8 µM; TGI (U251 CNS): 80.6 µM; TGI (UACC-257 melanoma): 9.02 µM; TGI (UACC-62 melanoma): 69.9 µM; TGI (UO-31 renal): > 100 µM
